Reference: PMC11578313, “Miniaturized Modular Click Chemistry‐enabled Rapid Discovery of Unique SARS‐CoV‐2 M^pro Inhibitors With Robust Potency and Drug‐like Profile” (Advanced Science, 2024)
Values joined by “and” are separate entries in the source; they are usually repeats but may differ in a detail not shown here. Equal entries are not always repeated. Where two headings read alike, the source gives them in different places.

Test: In vivo pharmacokinetic study in male ICR mice (compound alone)
Settings: for C0: read-out: C0
Method: The pharmacokinetics profile of the newly developed antiviral compound C5N17B was subsequently evaluated in male ICR mice that were free from specific pathogens, aiming to assess its potential for therapeutic application in vivo.
A total of six male ICR mice were randomly assigned to two groups. One group received the test drug intravenously at a dosage of 2 mg kg^−1, while the other group received oral administration at a dosage of 10 mg kg^−1. To prepare solutions of C5N17B, 2.39 mg compound was dissolved in a mixture of 0.119 mL DMSO, 0.238 mL polyoxyl 15 hydroxystearate (Solutol), and 2.027 mL normal saline. For the intravenous group, blood samples were collected from the sinus jugular into heparinized centrifugation tubes at various time points after dosing: 5, 15, 30 min, 1, 2, 4, 6, 8, and 24 h. As for the oral administration group, blood samples were collected at similar time points (0.05 mL of blood each time). The collected blood samples were then centrifuged at a speed of 4000 rpm for 10 min to separate plasma, which was subsequently stored at −20 °C until further LC‐MS analysis to determine the concentration of C5N17B. Briefly, the analysis involved adding 20 µL of plasma, sample calibration standard, quality control, and dilution quality control, and blank samples into respective wells on a 96‐well plate. Then each sample was quenched with 200 µL of internal standard (the blank sample was quenched with 200 µL of ACN: MeOH = 1:1), followed by vortex‐mixed for 5 min, and centrifuged for 0.5 min at 4000 rpm, 4 °C. Next, a 100 µL portion of supernatant was transferred to another clean 96‐well plate and diluted with 100 µL of water, vortex‐mixed for 5 min and centrifuged for 10 min at 4000 rpm, 4 °C, then the sample was injected for LC‐MS/MS analysis. All samples were quantified using an LC‐MS/MS‐AR Triple Quad 5500+ (SCIEX, USA) and the ExionLC liquid phase system. The mobile phase was 0.1% formic acid‐water/ACN with gradient elute at a flow rate of 0.8 mL mi^−1n (total time 2.20 min), and the detection wavelength was 225 nm. All blood samples were centrifuged using an Eppendorf 5424R centrifuge and quantified using an LC‐MS/MS‐AR Triple Quad 5500+ (SCIEX, USA). The pharmacokinetic parameters were calculated by WinNolin 8.2 software.

[1] = PO 10 mg/kg, individual mice 4-6, 10 mg/kg
[2] = i.v. 2 mg kg^−1, male ICR mice, n = 3

Cc1cncc(C(=O)N2C[C@H]3CC[C@@H](C2)N3[C@H](c2cccc(F)c2)c2cn(CCc3ccsc3)nn2)c1 [Compound C5N17B]
MRTINF_pred [1]: 295 min and 184.93 min and 381.5 min | MRTlast [1]: 113.8 min and 110 min | Tlast [1]: 4 h and 6 h | Vz_F_obs [1]: 837.29 L/kg and 630.24 L/kg and 684.762 L/kg | Vz_F_pred [1]: 906.828 L/kg and 630.882 L/kg and 737.02 L/kg | F, Mean (PO 10 mg/kg, mean of mice 4#-6#): 13.0% | C0, i.v. [2]: 0.514 ± 0.1647 µg/mL | t1/2, i.v. [2]: 6.36 ± 0.341 min | concentration at 5 min (male, ICR, mouse, plasma, iv, 2 mg/kg, IV 2 mg/kg, 5 min (5 min), mouse plasma, individual mice 1#-3#, read-out: Plasma concentration (Calculated Concentration)): 0.292 µg/mL | concentration at 5 min (male, ICR, mouse, plasma, iv, 2 mg/kg, IV 2 mg/kg, 5 min, individual mice, read-out: plasma concentration): 0.233 µg/mL | concentration at 5 min (male, ICR, mouse, plasma, iv, 2 mg/kg, IV 2 mg/kg, 5 min, mean of mice 1#-3#, read-out: Plasma concentration, Mean): 0.237 µg/mL | concentration at 0.5 h (male, ICR, mouse, plasma, iv, 2 mg/kg, IV 2 mg/kg, 0.5 h (30 min), mouse plasma, individual mice 1#-3#, read-out: Plasma concentration (Calculated Concentration)): 0.0184 µg/mL | concentration at 0.5 h (male, ICR, mouse, plasma, iv, 2 mg/kg, IV 2 mg/kg, 0.5 h, individual mice, read-out: plasma concentration): 0.0161 µg/mL | concentration at 0.5 h (male, ICR, mouse, plasma, iv, 2 mg/kg, IV 2 mg/kg, 0.50 h, mean of mice 1#-3#, read-out: Plasma concentration, Mean): 0.0149 µg/mL | concentration at […] (male, ICR, mouse, plasma, iv, 2 mg/kg, IV 2 mg/kg, […] (15 min), mouse plasma, individual mice 1#-3#, read-out: Plasma concentration (Calculated Concentration)): 0.0553 µg/mL | AUC(0-t) (male, ICR, mouse, plasma, iv, 2 mg/kg, IV 2 mg/kg, individual mice 1#-3#, read-out: AUC0-t): 0.0783 µg·h/mL | AUC(0-inf) (male, ICR, mouse, plasma, iv, 2 mg/kg, IV 2 mg/kg, individual mice 1#-3#, read-out: AUC0-∞): 0.0811 µg·h/mL | C0 (male, ICR, mouse, plasma, iv, 2 mg/kg, IV 2 mg/kg, individual mice 1#-3#): 0.671 µg/mL | clearance (male, ICR, mouse, plasma, iv, 2 mg/kg, IV 2 mg/kg, individual mice 1#-3#, read-out: Cl (converted)): 24.7 L/h/kg | Cmax (male, ICR, mouse, plasma, iv, 2 mg/kg, IV 2 mg/kg, individual mice 1#-3#, read-out: Cmax): 0.292 µg/mL | MRT last (male, ICR, mouse, plasma, iv, 2 mg/kg, IV 2 mg/kg, individual mice 1#-3#, read-out: MRT0-t): 5.42 min | MRT inf (male, ICR, mouse, plasma, iv, 2 mg/kg, IV 2 mg/kg, individual mice 1#-3#, read-out: MRT0-∞): 6.6 min | half-life (male, ICR, mouse, plasma, iv, 2 mg/kg, IV 2 mg/kg, individual mice 1#-3#, read-out: T1/2 (converted)): 6.42 min | Tmax (male, ICR, mouse, plasma, iv, 2 mg/kg, IV 2 mg/kg, individual mice 1#-3#, read-out: Tmax): 5 min | Vd (male, ICR, mouse, plasma, iv, 2 mg/kg, IV 2 mg/kg, individual mice 1#-3#, read-out: Vz): 3.82 L/kg | AUC(0-inf) (male, ICR, mouse, plasma, iv, 2 mg/kg, IV 2 mg/kg, individual mice 1-3, read-out: AUCINF_obs): 0.0811 µg·h/mL | AUC(0-inf) (male, ICR, mouse, plasma, iv, 2 mg/kg, IV 2 mg/kg, individual mice 1-3, read-out: AUCINF_pred): 0.0807 µg·h/mL | AUC (male, ICR, mouse, plasma, iv, 2 mg/kg, IV 2 mg/kg, individual mice 1-3, read-out: AUCall): 0.0783 µg·h/mL | AUC(0-t) (male, ICR, mouse, plasma, iv, 2 mg/kg, IV 2 mg/kg, individual mice 1-3, read-out: AUClast): 0.0783 µg·h/mL | C0 (male, ICR, mouse, plasma, iv, 2 mg/kg, IV 2 mg/kg, individual mice 1-3): 0.671 µg/mL | clearance (male, ICR, mouse, plasma, iv, 2 mg/kg, IV 2 mg/kg, individual mice 1-3, read-out: Cl_obs (converted)): 24.7 L/h/kg | concentration at 0.5 h (male, ICR, mouse, plasma, iv, 2 mg/kg, IV 2 mg/kg, individual mice 1-3, read-out: Clast): 0.0184 µg/mL | Cmax (male, ICR, mouse, plasma, iv, 2 mg/kg, IV 2 mg/kg, individual mice 1-3, read-out: Cmax): 0.292 µg/mL | k el (male, ICR, mouse, plasma, iv, 2 mg/kg, IV 2 mg/kg, individual mice 1-3, read-out: Lambda_z (converted)): 0.00179 s⁻¹ | MRT inf (male, ICR, mouse, plasma, iv, 2 mg/kg, IV 2 mg/kg, individual mice 1-3, read-out: MRTINF_obs): 6.61 min | MRT inf (male, ICR, mouse, plasma, iv, 2 mg/kg, IV 2 mg/kg, individual mice 1-3, read-out: MRTINF_pred): 6.45 min | MRT last (male, ICR, mouse, plasma, iv, 2 mg/kg, IV 2 mg/kg, individual mice 1-3, read-out: MRTlast): 5.42 min | Tmax (male, ICR, mouse, plasma, iv, 2 mg/kg, IV 2 mg/kg, individual mice 1-3, read-out: Tmax): 5 min | AUC(0-t) (male, ICR, mouse, plasma, iv, 2 mg/kg, IV 2 mg/kg, mean of mice 1#-3#, read-out: AUC0-t, Mean): 0.0636 µg·h/mL | AUC(0-inf) (male, ICR, mouse, plasma, iv, 2 mg/kg, IV 2 mg/kg, mean of mice 1#-3#, read-out: AUC0-∞, Mean): 0.0659 µg·h/mL | clearance (male, ICR, mouse, plasma, iv, 2 mg/kg, IV 2 mg/kg, mean of mice 1#-3#, read-out: Cl, Mean (converted)): 31.4 L/h/kg | Cmax (male, ICR, mouse, plasma, iv, 2 mg/kg, IV 2 mg/kg, mean of mice 1#-3#, read-out: Cmax, Mean): 0.237 µg/mL | MRT last (male, ICR, mouse, plasma, iv, 2 mg/kg, IV 2 mg/kg, mean of mice 1#-3#, read-out: MRT0-t, Mean): 5.81 min | MRT inf (male, ICR, mouse, plasma, iv, 2 mg/kg, IV 2 mg/kg, mean of mice 1#-3#, read-out: MRT0-∞, Mean): 6.96 min | half-life (male, ICR, mouse, plasma, iv, 2 mg/kg, IV 2 mg/kg, mean of mice 1#-3#, read-out: T1/2, Mean (converted)): 6.36 min | Tmax (male, ICR, mouse, plasma, iv, 2 mg/kg, IV 2 mg/kg, mean of mice 1#-3#, read-out: Tmax, Mean): 5 min | Vd (male, ICR, mouse, plasma, iv, 2 mg/kg, IV 2 mg/kg, mean of mice 1#-3#, read-out: Vz, Mean): 4.79 L/kg | AUC (male, ICR, mouse, plasma, iv, 2 mg/kg, i.v. 2 mg kg^−1, male ICR mice, n = 3, read-out: AUC0‐t, i.v.): 0.0636 ± 0.0142 µg·h/mL
